The text below walks through data of PubChem BioAssay (NCI).

Some test systems named below: OVCAR-3 ovarian; K-562 leukemia; HCT-116 colon; HS 578T breast; SF-268 CNS; OVCAR-8 ovarian; SF-295 CNS; SNB-19 CNS; DU-145 prostate; HOP-92 NSCLC.
What all share (assay): NCI tumour cell line growth inhibition, 48 h

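Each compound was tested at five concentrations against cells in 96-well plates for 48 hours. TGI: concentration producing complete growth inhibition.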

As for `O=C(CC(=O)c1ccccc1NC1=Cc2ccccc2C(=O)C1=O)C(=O)NC1=C(Cl)C(=O)c2ccccc2C1=O`, the TGI with OVCAR-3 ovarian was 7.05 µM; with K-562 leukemia, 9.7 µM; in the experiment on HCT-116 colon, 6.37 µM; in the experiment on HS 578T breast it was 5.64 µM; in the experiment with SF-268 CNS, 11.8 µM; with OVCAR-8 ovarian, 12.2 µM. For the same compound, the TGI came to 11.7 µM with SF-295 CNS, 16.7 µM with SNB-19 CNS, 16.1 µM in the experiment on DU-145 prostate and 17.9 µM in the experiment on HOP-92 NSCLC.
